Experimental findings from US7906137B2, “Delivery agents for enhancing mucosal absorption of therapeutic agents” (Mediplex Corporation, Korea, priority 2004, dated 2011) are described below.

The target of this series is insulin (Homo sapiens, UniProt P01308). The experiment in a line: Dissociation of high order protein aggregates by circular dichroism. Format: physicochemical. The following applies: 0.18 mM insulin, 0.18-37 mM MP-DCK, CD 300 to 250 nm, room temperature (FIG. 5). As for the experimental part:
A circular dichroism spectropolarimeter (Jasco J-715, Tokyo, Japan) was used to measure the effect of a delivery carrier on the aggregation state of insulin. Solutions containing 0.18 mM insulin and different concentration of MP-DCK (0.18-37 mM) were scanned from 300 to 250 nm at room temperature at a scanning speed of 50 nm/min using a cuvette with a pathlength of 0.1 cm. The results of the test are illustrated in FIG. 5.
On the technique in general: Circular dichroism is widely used to follow secondary structure.

Sequence of insulin (P01308 25-54 limits assumed): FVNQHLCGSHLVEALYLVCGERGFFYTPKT
Sequence of insulin (P01308 90-110 limits assumed): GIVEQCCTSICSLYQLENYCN

With `COC(=O)[C@H](CCCCN)NC(=O)CC[C@@H](C)[C@H]1CC[C@H]2[C@@H]3CC[C@@H]4C[C@H](O)CC[C@]4(C)[C@H]3C[C@H](O)[C@]12C` [DCK, N^α-deoxychoyl-L-lysine-methylester], the “aggregation state of insulin” value is recorded as “decrease the aggregation state of the insulin”.
